According to BigSolDB 2.1:

CCCNS(=O)(=O)Nc1ncnc(OCCOc2ncc(Br)cn2)c1-c1ccc(Br)cc1
solubility (mole fraction)
Settings | 273.15 K | 278.15 K | 283.15 K | 288.15 K | 293.15 K | 298.15 K | 303.15 K | 308.15 K | 313.15 K
in ethanol | 6.4e-05 | 8.8e-05 | 0.000117 | 0.000151 | 0.000188 | 0.000234 | 0.000293 | 0.000365 | 0.000458
in ethyl acetate | 0.00338 | 0.00406 | 0.00483 | 0.00577 | 0.00681 | 0.00793 | 0.00921 | 0.0107 | 0.0122
in isopropanol | 4.7e-05 | 5.9e-05 | 7.5e-05 | 9.2e-05 | 0.000114 | 0.000141 | 0.000172 | 0.000206 | 0.000246
in methanol | 7.6e-05 | 0.000109 | 0.000145 | 0.000186 | 0.000232 | 0.000284 | 0.000358 | 0.000463 | 0.000602
